Experimental data from US9802937B2, “Substituted pyrazolo{4,3-D}pyrimidines as kinase inhibitors” (ORIGENIS GMBH, priority 2011, dated 2017).

Tests used:
SYK kinase = molecular target: T1, SYK kinase (Homo sapiens, UniProt P43405); assay: SYK Assay (OMNIA KINASE ASSAY, SOX peptide fluorescence); assay type: biochemical; conditions: apparent Ki calculated from the IC50 using the Cheng-Prusoff equation; 1 mM ATP, 30° C.; read-out: SYK Activities: Ki
T1 construct: purchased Invitrogen, Carlsbad
Outline: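 Continuous Omnia assay: SYK phosphorylation of SOX-labelled Tyr 7 peptide (10 µM) with 1 mM ATP and 0.2 mM DTT at 30 °C. Fluorescence (ex 360/em 485 nm) read every 30 s for 30 min. Reaction velocity versus inhibitor concentration gives IC50, converted to apparent Ki by Cheng-Prusoff.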

MYLK = MYLK (Homo sapiens, UniProt Q15746); assay: MYLK Assay (LanthaScreen Eu Kinase Binding Assay); conditions: 5 nM MYLK, 30 nM tracer 236, RT 1 h; read-out: MYLK Activities: IC50
Description: In the assay LanthaScreen™ Eu Kinase Binding Assay by Invitrogen Corporation (Carlsbad) the effect of invention of a compound on the phosphorylation is determined by measurement of fluorescence intensity emission ratio based on the binding and displacement of a proprietary, Alexa Fluor® 647-labeled, ATP-competitive kinase inhibitor scaffold (kinase tracer) to the kinase of interest as described above.
To the wells of an 384 well small volume plate (Greiner, Frickenhausen) are added (i) the compound under test in 5% is DMSO/distilled water (5 μl), (ii) 5 μl of the kinase antibody mixture resulting in a final concentration 5 nM MYLK, 2 nM EU-Anti-GST antibody in 1× kinase buffer A. The reaction was started with addition of (iii) 5 μl resulting in a final concentration of 30 nM tracer 236. The assay plate was incubated at RT for 1 h and fluorescence intensity readings were collected using a TECAN M1000 at two wavelengths of λex 340/λem 615 nm and λex 340/λem 665 nm with a delay time of 100 μs and an integration time of 200 μs after 60 minutes. The emission ratio was calculated by division of the acceptor/tracer emission ([…]) by the antibody/donor emission ([…]). The inhibitor concentration was plotted versus the emission ratio to determine the IC50 using XLFit 5.0 (IDBS, Guildford) to fit to a sigmoidal dose response curve with a variable slope.

LRRK2 = LRRK2 (Homo sapiens, UniProt Q5S007); assay: LRRK2-LRRK2 G2019S-Assay (LanthaScreen Eu Kinase Binding Assay); conditions: 5 nM LRRK2 or their mutants, 10 nM tracer 236, RT 1 h; read-out: LRRK2 Activities: IC50
Outline: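 TR-FRET tracer-displacement binding assay with 5 nM LRRK2 or mutant, 2 nM Eu-anti-GST antibody and 10 nM tracer 236 in kinase buffer A. Incubated 1 h at RT; 665/615 nm emission ratio read (ex 340 nm). IC50 from variable-slope sigmoidal fit.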

[1] = tested on: refractory NHL and chronic lymphocytic leukemia; conditions: phase II; cited from earlier work
Syk = conditions: various stimuli, including FcepsilonR1 and BCR induced Syk activation; cited from earlier work
[2] = tested on: lymphoma cell lines and primary human lymphoma samples; conditions: cited from earlier work
JAK kinases = conditions: cited from earlier work

MYLK, sequence (Q15746 whole entry): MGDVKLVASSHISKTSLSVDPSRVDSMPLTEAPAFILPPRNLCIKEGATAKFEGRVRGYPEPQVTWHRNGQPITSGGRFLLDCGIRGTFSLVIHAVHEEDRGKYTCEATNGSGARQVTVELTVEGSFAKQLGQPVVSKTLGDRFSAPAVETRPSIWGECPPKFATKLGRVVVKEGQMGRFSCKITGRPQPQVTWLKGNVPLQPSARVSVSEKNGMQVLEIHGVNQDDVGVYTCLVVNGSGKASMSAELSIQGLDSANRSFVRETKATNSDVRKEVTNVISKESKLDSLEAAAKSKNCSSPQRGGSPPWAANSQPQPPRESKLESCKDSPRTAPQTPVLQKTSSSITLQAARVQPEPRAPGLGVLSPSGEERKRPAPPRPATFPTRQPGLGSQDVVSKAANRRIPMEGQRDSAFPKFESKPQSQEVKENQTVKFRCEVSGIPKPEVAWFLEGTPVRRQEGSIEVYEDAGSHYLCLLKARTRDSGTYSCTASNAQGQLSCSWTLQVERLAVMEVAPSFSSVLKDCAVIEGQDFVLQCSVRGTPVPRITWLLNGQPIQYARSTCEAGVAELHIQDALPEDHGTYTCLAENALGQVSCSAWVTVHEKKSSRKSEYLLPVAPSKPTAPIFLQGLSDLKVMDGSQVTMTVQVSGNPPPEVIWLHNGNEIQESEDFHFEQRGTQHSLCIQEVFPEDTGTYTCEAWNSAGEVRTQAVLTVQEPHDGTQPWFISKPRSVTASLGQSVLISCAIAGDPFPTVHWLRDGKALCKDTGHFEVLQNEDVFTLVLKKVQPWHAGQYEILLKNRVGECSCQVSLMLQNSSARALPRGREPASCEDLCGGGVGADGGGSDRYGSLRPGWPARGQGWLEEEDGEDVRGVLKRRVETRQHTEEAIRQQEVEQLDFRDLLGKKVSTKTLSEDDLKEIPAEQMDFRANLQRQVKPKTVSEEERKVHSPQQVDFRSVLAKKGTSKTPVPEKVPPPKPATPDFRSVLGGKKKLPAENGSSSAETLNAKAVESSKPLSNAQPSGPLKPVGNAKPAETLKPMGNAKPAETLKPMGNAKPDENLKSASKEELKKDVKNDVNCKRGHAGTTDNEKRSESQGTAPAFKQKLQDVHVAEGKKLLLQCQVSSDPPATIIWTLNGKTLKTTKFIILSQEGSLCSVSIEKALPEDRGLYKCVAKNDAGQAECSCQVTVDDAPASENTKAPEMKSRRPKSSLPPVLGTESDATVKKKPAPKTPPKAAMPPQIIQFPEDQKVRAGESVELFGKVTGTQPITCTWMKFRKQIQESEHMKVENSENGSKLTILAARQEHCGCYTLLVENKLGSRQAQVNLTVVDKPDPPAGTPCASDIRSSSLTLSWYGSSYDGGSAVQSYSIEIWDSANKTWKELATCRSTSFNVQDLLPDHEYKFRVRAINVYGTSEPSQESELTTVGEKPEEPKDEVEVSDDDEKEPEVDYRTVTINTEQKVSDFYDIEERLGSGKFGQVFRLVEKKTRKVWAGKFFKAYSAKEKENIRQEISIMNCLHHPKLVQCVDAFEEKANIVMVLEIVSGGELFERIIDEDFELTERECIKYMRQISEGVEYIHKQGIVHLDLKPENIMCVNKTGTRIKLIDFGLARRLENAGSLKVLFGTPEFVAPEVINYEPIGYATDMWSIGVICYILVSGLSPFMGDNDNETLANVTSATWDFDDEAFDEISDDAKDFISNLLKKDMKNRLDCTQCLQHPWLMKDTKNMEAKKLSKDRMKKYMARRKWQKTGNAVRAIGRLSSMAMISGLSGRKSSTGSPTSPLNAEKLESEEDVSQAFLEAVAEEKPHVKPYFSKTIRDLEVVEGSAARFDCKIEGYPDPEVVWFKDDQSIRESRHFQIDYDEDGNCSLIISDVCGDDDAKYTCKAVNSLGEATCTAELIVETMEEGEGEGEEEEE
LRRK2, sequence (Q5S007 970-2527 limits assumed): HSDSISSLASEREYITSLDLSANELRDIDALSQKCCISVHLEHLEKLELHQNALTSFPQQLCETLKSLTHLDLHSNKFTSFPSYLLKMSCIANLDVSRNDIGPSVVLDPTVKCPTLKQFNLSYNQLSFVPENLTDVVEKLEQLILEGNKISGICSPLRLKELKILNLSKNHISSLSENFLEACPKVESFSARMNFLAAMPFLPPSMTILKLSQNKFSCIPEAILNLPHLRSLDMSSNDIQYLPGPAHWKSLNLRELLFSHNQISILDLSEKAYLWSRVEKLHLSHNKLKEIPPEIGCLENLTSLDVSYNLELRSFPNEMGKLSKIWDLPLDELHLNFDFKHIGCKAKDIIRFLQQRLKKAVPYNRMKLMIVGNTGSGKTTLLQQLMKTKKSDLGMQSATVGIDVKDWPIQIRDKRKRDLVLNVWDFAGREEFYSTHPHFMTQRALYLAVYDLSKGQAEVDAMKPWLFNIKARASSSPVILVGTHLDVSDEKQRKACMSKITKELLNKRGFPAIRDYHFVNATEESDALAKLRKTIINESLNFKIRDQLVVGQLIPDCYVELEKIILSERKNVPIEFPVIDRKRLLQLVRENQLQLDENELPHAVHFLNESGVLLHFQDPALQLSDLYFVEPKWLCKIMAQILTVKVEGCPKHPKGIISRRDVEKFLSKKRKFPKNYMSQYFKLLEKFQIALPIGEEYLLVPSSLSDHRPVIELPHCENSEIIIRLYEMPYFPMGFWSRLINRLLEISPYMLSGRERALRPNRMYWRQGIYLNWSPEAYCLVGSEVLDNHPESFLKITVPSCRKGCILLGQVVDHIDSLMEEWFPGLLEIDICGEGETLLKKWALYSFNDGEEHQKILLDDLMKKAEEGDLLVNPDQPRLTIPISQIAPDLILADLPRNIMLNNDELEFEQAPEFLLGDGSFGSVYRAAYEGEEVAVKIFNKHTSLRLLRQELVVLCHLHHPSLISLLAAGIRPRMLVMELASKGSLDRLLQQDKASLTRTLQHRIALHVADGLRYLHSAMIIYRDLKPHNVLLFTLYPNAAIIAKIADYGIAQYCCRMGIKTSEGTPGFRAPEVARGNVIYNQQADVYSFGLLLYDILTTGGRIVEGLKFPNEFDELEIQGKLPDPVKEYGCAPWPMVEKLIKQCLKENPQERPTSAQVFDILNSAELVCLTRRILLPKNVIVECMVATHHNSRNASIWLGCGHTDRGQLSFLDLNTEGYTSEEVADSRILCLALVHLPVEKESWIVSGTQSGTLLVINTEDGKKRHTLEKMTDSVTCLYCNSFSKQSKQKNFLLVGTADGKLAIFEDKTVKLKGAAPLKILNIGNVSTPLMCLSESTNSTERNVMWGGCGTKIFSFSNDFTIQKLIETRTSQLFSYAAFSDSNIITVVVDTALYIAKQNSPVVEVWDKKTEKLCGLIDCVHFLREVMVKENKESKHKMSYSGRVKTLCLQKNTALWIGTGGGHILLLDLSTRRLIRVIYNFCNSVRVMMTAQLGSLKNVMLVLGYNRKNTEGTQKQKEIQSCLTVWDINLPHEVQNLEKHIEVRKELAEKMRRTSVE

SMILES	Ki (SYK kinase) [nM]	IC50 (MYLK) [nM]	IC50 (LRRK2) [nM]	clinical result [1]	inhibition of ITAM signaling (Syk)	BCR signaling ([2]; lymphoma cell lines and primary human lymphoma samples)	apoptosis ([2]; lymphoma cell lines)	activity against JAK kinases (JAK kinases)
CN(C)c1cccc(Nc2nc(-c3ccsc3)nc3cn[nH]c23)c1 [Example #114, N1,N1-dimethyl-N3-(5-(thiophen-3-yl)-1H-pyrazolo[4,3-d]pyrimidin-7-yl)benzene-1,3-diamine]	10 to 100	< 5000	100 to 1000					
CN1CCN(c2ccc(Nc3nc(-c4ccc(N5CCCC5)nc4)nc4cn[nH]c34)cc2)CC1 [Example #46, N-(4-(4-methylpiperazin-1-yl)phenyl)-5-(6-(pyrrolidin-1-yl)pyridin-3-yl)-1H-pyrazolo[4,3-d]pyrimidin-7-amine]	< 10	< 5000	10 to 100					
COc1ccc(-c2nc(Nc3ccc(N4CCN(C(C)(C)C)CC4)cc3)c3[nH]ncc3n2)cc1 [Example #172, N-(4-(4-(tert-butyl)piperazin-1-yl)phenyl)-5-(4-methoxyphenyl)-1H-pyrazolo[4,3-d]pyrimidin-7-amine]	< 10	< 5000	100 to 1000					
CN1CCN(c2ccc(Nc3nc(-c4ccccc4)nc4cn[nH]c34)cc2)CC1 [Example #35, N-(4-(4-methylpiperazin-1-yl)phenyl)-5-phenyl-1H-pyrazolo[4,3-d]pyrimidin-7-amine]	< 10	< 5000	100 to 1000					
c1ccn2cc(-c3nc(Nc4ccc5cn[nH]c5c4)c4[nH]ncc4n3)nc2c1 [Example #127, 5-(imidazo[1,2-a]pyridin-2-yl)-N-(1H-indazol-6-yl)-1H-pyrazolo[4,3-d]pyrimidin-7-amine]	10 to 100	< 5000	100 to 1000					
CN1CCN(C(=O)c2ccc(Nc3nc(-c4cccs4)nc4cn[nH]c34)cc2)CC1 [Example #134, (4-methylpiperazin-1-yl)(4-((5-(thiophen-2-yl)-1H-pyrazolo[4,3-d]pyrimidin-7-yl)amino)phenyl)methanone]	< 10	< 5000	100 to 1000					
COc1ccc(Nc2nc(-c3cccc(NS(C)(=O)=O)c3)nc3cn[nH]c23)cc1OC [Example #189, N-(3-(7-((3,4-dimethoxyphenyl)amino)-1H-pyrazolo[4,3-d]pyrimidin-5-yl)phenyl)methanesulfonamide]	< 10	< 5000	100 to 1000					
COc1cccc(-c2nc(Nc3ccc(CN4CCCC4)cc3)c3[nH]ncc3n2)c1 [Example #132, 5-(3-methoxyphenyl)-N-(4-(pyrrolidin-1-ylmethyl)phenyl)-1H-pyrazolo[4,3-d]pyrimidin-7-amine]	< 10	< 5000	100 to 1000					
NS(=O)(=O)c1cccc(-c2nc(Nc3ccc4c(c3)NC(=O)CC4)c3[nH]ncc3n2)c1 [Example #238, 3-(7-((2-oxo-1,2,3,4-tetrahydroquinolin-7-yl)amino)-1H-pyrazolo[4,3-d]pyrimidin-5-yl)benzenesulfonamide]	< 10	< 5000	10 to 100					
COc1ccc(Nc2nc(-c3cccs3)nc3cn[nH]c23)cc1OC [Example #68, N-(3,4-dimethoxyphenyl)-5-(thiophen-2-yl)-1H-pyrazolo[4,3-d]pyrimidin-7-amine]	< 10	< 5000	100 to 1000					
CN1CCN(c2ccc(Nc3nc(-c4ccsc4)nc4cn[nH]c34)cc2)CC1 [Example #74, N-(4-(4-methylpiperazin-1-yl)phenyl)-5-(thiophen-3-yl)-1H-pyrazolo[4,3-d]pyrimidin-7-amine]	< 10	< 5000	100 to 1000					
c1ccc2sc(-c3nc(Nc4ccc5c(c4)NCCO5)c4[nH]ncc4n3)nc2c1 [Example #97, N-(5-(benzo[d]thiazol-2-yl)-1H-pyrazolo[4,3-d]pyrimidin-7-yl)-3,4-dihydro-2H-benzo[b][1,4]oxazin-6-amine]	10 to 100	< 5000	100 to 1000					
COc1cc(Nc2ncc(F)c(Nc3ccc4c(n3)NC(=O)C(C)(C)O4)n2)cc(OC)c1OC [Example R406]				favorable results	inhibit ITAM signaling	attenuates BCR signaling	resulting in apoptosis of the former	active
CN1CCN(c2ccc(Nc3nc(-c4nc5ccccc5s4)nc4cn[nH]c34)cc2)CC1 [Example #95, 5-(benzo[d]thiazol-2-yl)-N-(4-(4-methylpiperazin-1-yl)phenyl)-1H-pyrazolo[4,3-d]pyrimidin-7-amine]	< 10	< 5000	10 to 100					
